According to ChEMBL document CHEMBL1201862, “PubChem BioAssay data set” (2004):
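Step 1: Grow cells in 96-well plates. Step 2: Expose to compound for 48 hours at 5 concentrations. Step 3: Interpolate endpoints linearly; if unreached, use highest concentration. Here, GI50 denotes the concentration required for 50% inhibition of growth.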 Activity calls are given as the source filed them. No stated cut-off is given here; in the data, active = GI50 up to about 1.1 µM and inactive = higher.

Tests used:
Test in all cases: NCI tumour cell line growth inhibition, 48 h
SN12C = system: SN12C
DU-145 = system: DU-145
UACC-62 = system: UACC-62
SK-MEL-2 = system: SK-MEL-2
HOP-92 = system: HOP-92
HOP-62 = system: HOP-62
SK-MEL-5 = system: SK-MEL-5
A549 = system: A549
MDA-MB-231 = system: MDA-MB-231
T47D = system: T47D
NCI-H522 = system: NCI-H522
SF-539 = system: SF-539
SK-OV-3 = system: SK-OV-3
EKVX = system: EKVX
MOLT-4 = system: MOLT-4
RPMI-8226 = system: RPMI-8226
NCI/ADR-RES = system: NCI/ADR-RES
Hs-578T = system: Hs-578T
A498 = system: A498
PC-3 = system: PC-3

| SMILES | GI50 (SN12C) | GI50 (DU-145) | GI50 (UACC-62) | GI50 (SK-MEL-2) | GI50 (HOP-92) | GI50 (HOP-62) | GI50 (SK-MEL-5) | GI50 (A549) | GI50 (MDA-MB-231) | GI50 (T47D) | GI50 (NCI-H522) | GI50 (SF-539) | GI50 (SK-OV-3) | GI50 (EKVX) | GI50 (MOLT-4) | GI50 (RPMI-8226) | GI50 (NCI/ADR-RES) | GI50 (Hs-578T) | GI50 (A498) | GI50 (PC-3) |
| --- | --- | --- | --- | --- | --- | --- | --- | --- | --- | --- | --- | --- | --- | --- | --- | --- | --- | --- | --- | --- |
| COc1cc(C(=O)Nc2nnc(S(N)(=O)=O)s2)cc(OC)c1OC | > 100 µM (inactive) | > 100 µM (inactive) | > 100 µM (inactive) | > 100 µM (inactive) | 65.6 µM (inactive) | > 100 µM (inactive) | > 100 µM (inactive) | > 100 µM (inactive) | > 100 µM (inactive) | > 100 µM (inactive) | > 100 µM (inactive) | > 100 µM (inactive) | > 100 µM (inactive) | > 100 µM (inactive) | > 100 µM (inactive) | > 100 µM (inactive) | > 100 µM (inactive) | > 100 µM (inactive) |  |  |
| O=[N+]([O-])C(=C1Nc2ccccc2N1)C(Cl)=C(Cl)Cl | > 100 µM (inactive) | > 100 µM (inactive) | > 100 µM (inactive) | > 100 µM (inactive) | > 100 µM (inactive) | > 100 µM (inactive) | > 100 µM (inactive) | > 100 µM (inactive) | 24.8 µM (inactive) | 31.1 µM (inactive) | > 100 µM (inactive) | > 100 µM (inactive) | > 100 µM (inactive) | > 100 µM (inactive) | 19.8 µM (inactive) | 70 µM (inactive) |  | 49.8 µM (inactive) | > 100 µM (inactive) | > 100 µM (inactive) |
| N#Cc1ccc(Oc2nc3ccccc3nc2-c2ccccc2)cc1 | > 100 µM (inactive) | > 100 µM (inactive) | > 100 µM (inactive) | > 100 µM (inactive) | > 100 µM (inactive) | > 100 µM (inactive) | > 100 µM (inactive) |  | > 100 µM (inactive) |  | > 100 µM (inactive) |  | > 100 µM (inactive) | > 100 µM (inactive) | > 100 µM (inactive) | > 100 µM (inactive) |  | > 100 µM (inactive) | > 100 µM (inactive) | > 100 µM (inactive) |
| O=C1C2=Cc3ccccc3OC2(O)Oc2cc3ccccc3cc21 (stereo unspecified) | > 100 µM (inactive) | > 100 µM (inactive) | > 100 µM (inactive) | > 100 µM (inactive) | 74.3 µM (inactive) | > 100 µM (inactive) | > 100 µM (inactive) | > 100 µM (inactive) | > 100 µM (inactive) | > 100 µM (inactive) |  | 20 µM (inactive) | 56.5 µM (inactive) | > 100 µM (inactive) | > 100 µM (inactive) | > 100 µM (inactive) | > 100 µM (inactive) |  | > 100 µM (inactive) | > 100 µM (inactive) |
| O=C(O)CN1CCNCCN(CP(=O)(O)O)CC1 | > 100 µM (inactive) | > 100 µM (inactive) | 8.69 µM (inactive) | 7.03 µM (inactive) | 22.3 µM (inactive) | > 100 µM (inactive) | 4.28 µM (inactive) | 4.89 µM (inactive) | > 70.1 µM (inactive) | > 100 µM (inactive) | 2.58 µM (inactive) |  | 11.8 µM (inactive) | 13.2 µM (inactive) | 4.34 µM (inactive) | 5.52 µM (inactive) |  | > 30.1 µM (inactive) | > 19.7 µM (inactive) | 9.73 µM (inactive) |
| O=c1oc2ccccc2c(-c2ccc(O)cc2)c1Oc1ccccc1 | 21.5 µM (inactive) | 4.25 µM (inactive) | 5.18 µM (inactive) | 7.1 µM (inactive) | 10.2 µM (inactive) | 24.1 µM (inactive) | 14.1 µM (inactive) | 22.1 µM (inactive) | 3.17 µM (inactive) | > 100 µM (inactive) | 3.47 µM (inactive) | 20.7 µM (inactive) | 34.8 µM (inactive) | 15.7 µM (inactive) | 28.8 µM (inactive) | 28.1 µM (inactive) |  | 7.5 µM (inactive) | 7.71 µM (inactive) | 8.49 µM (inactive) |
| COC(=O)N1C[C@@]2(C=CC3(CC2)OCCO3)c2ccccc21 | > 100 µM (inactive) | > 100 µM (inactive) | 65.5 µM (inactive) | > 100 µM (inactive) | 44.1 µM (inactive) | > 100 µM (inactive) | 81.7 µM (inactive) | > 100 µM (inactive) | > 100 µM (inactive) | > 100 µM (inactive) |  |  | > 100 µM (inactive) | 62.1 µM (inactive) | 58.3 µM (inactive) | 61.1 µM (inactive) | 28.6 µM (inactive) |  | > 100 µM (inactive) | 63.7 µM (inactive) |
| N#Cc1nsnc1-c1nc(-c2nsnc2C#N)nc(-c2nsnc2C#N)n1 | > 100 µM (inactive) | > 100 µM (inactive) | > 100 µM (inactive) | > 100 µM (inactive) |  | > 100 µM (inactive) | > 100 µM (inactive) |  | > 100 µM (inactive) |  | > 100 µM (inactive) | > 100 µM (inactive) |  | > 100 µM (inactive) | > 100 µM (inactive) | > 100 µM (inactive) | > 100 µM (inactive) | 37.7 µM (inactive) | > 100 µM (inactive) | > 100 µM (inactive) |
| C[C@]12CCC(N3CCCC3)CC1=CC[C@@H]1[C@@H]2CC[C@]2(C)C(O)[C@H](n3ccnc3)C[C@@H]12 (stereo partly specified) | 46.5 µM (inactive) | > 100 µM (inactive) | 32.1 µM (inactive) | 41.9 µM (inactive) | > 100 µM (inactive) |  | 53 µM (inactive) | 66.5 µM (inactive) | > 100 µM (inactive) |  | 49.9 µM (inactive) | 19 µM (inactive) |  | > 100 µM (inactive) | 14.2 µM (inactive) | 30.8 µM (inactive) | > 100 µM (inactive) | > 10 µM (inactive) | > 100 µM (inactive) | 36.7 µM (inactive) |
| Nc1ccc(Oc2ccc(C3(c4ccc(Oc5ccc(N)c(O)c5)cc4)C4CC5C6CC7CC5C3C(C7)C6C4)cc2)cc1O | 1.55 µM (inactive) | 1.86 µM (inactive) | 4.02 µM (inactive) | 2.36 µM (inactive) | 1.77 µM (inactive) | 1.73 µM (inactive) | 3.86 µM (inactive) | 1.56 µM (inactive) | 1.89 µM (inactive) |  | 1.83 µM (inactive) | 2.61 µM (inactive) |  | 1.38 µM (inactive) | 2.07 µM (inactive) | 1.63 µM (inactive) | 5.62 µM (inactive) | 3.13 µM (inactive) | 2.55 µM (inactive) | 1.86 µM (inactive) |
| CCOC(=O)Cn1nnc2ccc(Nc3nc4ccccc4nc3-c3ccccc3)cc21 | > 100 µM (inactive) | 11 µM (inactive) | > 100 µM (inactive) | > 100 µM (inactive) | > 100 µM (inactive) | 48 µM (inactive) | > 100 µM (inactive) | > 100 µM (inactive) |  | > 100 µM (inactive) | > 100 µM (inactive) | 59.6 µM (inactive) | 90.8 µM (inactive) | > 100 µM (inactive) | > 100 µM (inactive) | > 100 µM (inactive) | > 100 µM (inactive) | 75.2 µM (inactive) | > 100 µM (inactive) | > 100 µM (inactive) |
| c1cc2cc(c1)CN1CCNCCN(CCNCC1)Cc1cccc(c1)CN1CCNCCN(CCNCC1)C2 | > 100 µM (inactive) | > 100 µM (inactive) | > 100 µM (inactive) | > 100 µM (inactive) |  | > 100 µM (inactive) | > 100 µM (inactive) | > 100 µM (inactive) | > 100 µM (inactive) | > 100 µM (inactive) |  | > 100 µM (inactive) | > 100 µM (inactive) | > 100 µM (inactive) | > 100 µM (inactive) | > 100 µM (inactive) | > 100 µM (inactive) | > 100 µM (inactive) | > 100 µM (inactive) | > 100 µM (inactive) |
| Cc1nc2cc3ccccc3cc2[nH]c1=O | > 100 µM (inactive) | > 100 µM (inactive) | 36.3 µM (inactive) | > 100 µM (inactive) | 26.1 µM (inactive) | 71.6 µM (inactive) | 96.2 µM (inactive) | > 100 µM (inactive) | 72.3 µM (inactive) | 55.2 µM (inactive) | 59.4 µM (inactive) | 53.2 µM (inactive) | > 100 µM (inactive) | 0.805 µM (active) | 44 µM (inactive) |  | 77.3 µM (inactive) |  | 19.8 µM (inactive) | > 100 µM (inactive) |
| COc1cc(S(=O)(=O)Nc2nc(-c3ccc(N4C(=O)/C(=C/c5ccccc5[N+](=O)[O-])N=C4c4ccccc4)cc3)cs2)ccc1Cl | > 100 µM (inactive) | > 100 µM (inactive) | 27 µM (inactive) | 33.3 µM (inactive) | 88.3 µM (inactive) | 87.1 µM (inactive) | 48.9 µM (inactive) | > 100 µM (inactive) | 19.9 µM (inactive) | 55.5 µM (inactive) | 48.3 µM (inactive) | > 100 µM (inactive) | 95.7 µM (inactive) |  | 37.7 µM (inactive) |  | > 100 µM (inactive) |  | > 100 µM (inactive) | 47 µM (inactive) |
| Cc1n[nH]c(=O)n1/N=C/c1ccncc1 | > 100 µM (inactive) | > 100 µM (inactive) | > 100 µM (inactive) | > 100 µM (inactive) | > 100 µM (inactive) | > 100 µM (inactive) | > 100 µM (inactive) | > 100 µM (inactive) | > 100 µM (inactive) | > 100 µM (inactive) | > 100 µM (inactive) | > 100 µM (inactive) | > 100 µM (inactive) | > 100 µM (inactive) | > 100 µM (inactive) |  | > 100 µM (inactive) | > 100 µM (inactive) | > 100 µM (inactive) |  |
